# Values quoted from earlier work in patent US20250222007A1, “PREPARATION OF LOW MOLECULAR WEIGHT POLYLACTIC ACID AND THE USE THEREOF” (AL Andalous for Pharmaceutical Industries, priority 2023, published 2025).
# Columns and labels:
# rabbit eye = conditions: 0.2 ml/day of 100% DMSO (4 drops/day) for 6 months
# blind human eyes = conditions: 66% DMSO (with Tetryzoline) topically 4-8 times a day
# lower conjunctival sac = conditions: 50 microliters instilled directly in the lower conjunctival sac
# [1] = dissolved in 0.1% DMSO, 20.5, 5, 10, 30, 40 micrograms
SMILES,adverse effect in the eye (rabbit eye),cases with a burning sensation (blind human eyes),"sensitivity to DMSO, epithelial damage, increase of IOP or keratitis (blind human eyes)",eye irritation or conjunctival or corneal injury (lower conjunctival sac),toxicity after intravitreal injection [1]
"C[S+](C)[O-] [DMSO, dimethyl sulfoxide]",without any evidence of an adverse effect,only one case,None of any blind eyes evinced any evidence,without any signs of eye irritation or conjunctival or corneal injury,–
Clc1ccc(COC(Cn2ccnc2)c2ccc(Cl)cc2Cl)c(Cl)c1 (centres unmarked) [miconazole],–,–,–,–,No toxicity was observed
